The subject of one test is asthmatic rats. As to the kind of experiment: Asthmatic rat assay (duration of dyspnoea after egg albumin aerosol). It is filed as in vivo. The following applies: po; for inhibition in vivo at 3 mg/kg: 3 mg/kg p.o.; for inhibition in vivo at 1.5 mg/kg: 1.5 mg/kg p.o.; for inhibition in vivo at 0.5 mg/kg: 0.5 mg/kg p.o. From the text: Rats were obtained from an inbred line of asthmatic rats. Both female and male rats from 200 to 300 g were used.
Egg albumin (EA), grade V, crystallized and lyophilized, was obtained from Sigma Chemical Co., St. Louis. Bordetella pertussis vaccine, containing 30×10^9 killed bacteria per ml was obtained from the Institut Armand-Frappier, Laval des Rapides, Quebec. Aluminum hydroxide was obtained from the Regeis Chemical Company, Chicago.
The challenge and subsequent respiratory recordings were carried out in a clear plastic box with internal dimensions 10×6×4 inches. The top of the box was removable; in use, it was held firmly in place by four clamps and an airtight seal was maintained by a soft rubber gasket. […] A Fleisch No. 0000 pneumotachograph was inserted into one end of the box and coupled to a Grass volumetric pressure transducer (PT5-A) which was then connected to a Beckman Type R Dynograph through appropriate couplers. While aerosilizing the antigen, the outlets were open and the pneumotachograph was isolated from the chamber. The outlets were closed and the pneumotachograph and the chamber were connected during the recording or the respiratory patterns. For challenge, 2 ml of a 3% solution of antigen in saline was placed into each nebulizer and the aerosol was generated with air from a small Potter diaphragm pump operating at 10 psi and a flow of 8 liters/minutes.
Rats were sensitized by injection (s.c.) 1 ml of a suspension containing 1 mg EA and 200 mg aluminum hydroxide in saline. Simultaneously, they received an injection (i.p.) of 0.5 ml of B. pertussis vaccine. They were used between days 14 and 18 postsensitization. In order to eliminate the serotonin component of the response, rats were pretreated intravenously 5 minutes prior to aerosol challenge with […] methylserzide. Rats were then exposed to an aerosol of 3% EA in saline for exactly 1 minute, then their respiratory profiles were recorded for a further 25-30 minutes. The duration of continuous dyspnoea was measured from the respiratory recordings.
Compounds were generally administered either intraperitoneally 1 hour prior to challenge or orally 11/2 hours prior to challenge. They were either dissolved in dimethylsulfoxide or suspended in 0.1% methocel and 0.5% Tween 80. The volume injected has 2 ml kg^-1 (intraperitoneally) or 10 ml kg^-1 (orally). Prior to oral treatment rats were starved overnight. Their activity was determined in terms of their ability to decrease the duration of symptoms of dyspnoea in comparison with a group of vehicle-treated controls. Usually, a compound was evaluated at a series of doses and an ED50 was determined. This was defined as the dose (mg/kg) which would inhibit the duration of symptoms by 50%.

In test [1] the test system is PAF-induced hyperalgesia in Sprague-Dawley rats. In words: PAF-induced hyperalgesia assay (vocalization threshold, rat paw). It is filed as in vivo. The following applies: po, read-out: PAF Induced Hyperalgesia Assay % inhibition; for responders at 3 mg/kg: 3 mg/kg p.o.; for responders at 1 mg/kg: 1 mg/kg p.o. How it is done: Female Sprague-Dawley rats, 35-40 g were fasted overnight. Platelet activating factor, PAF, (L-lecithin B-acetyl O-alkyl) 1 μg/0.1 ml was given by subplantar injection in the rat paw. The compounds to be evaluated were homogenized in aqueous Vehicle (0.9% benzyl alcohol, 0.5% Tween 80 and 0.4% methylcellulose) and administered orally in a volume of 0.1 ml, 30 minutes prior to PAF.
Animals were tested 1, 2, 3 and 4 hours after PAF administration. The vocalization threshold, defined as the pressure (mm Hg) needed to evoke a squeak response, was recorded for both the injected and contralateral paw. No animal was subjected to pressure greater than 60 mm Hg. Hyperalgesia is defined as a decrease in vocalization threshold as compared to a normal paw. Percent inhibition of hyperalgesia was calculated as the proportion of animals with vocalization thresholds greater than 200% of controls.

As to `O=S1(=O)c2ccccc2Nc2ccc(O)cc21`, the inhibition in vivo (in general, the change of the read-out against control, counted positive when it falls) at 3 mg/kg in the test with asthmatic rats stood at 70%. For the same molecule, in test [1], the responders at 3 mg/kg is 60%.

The molecule `O=S1(=O)c2ccccc2Nc2ccc(O)c(Cl)c21` came in with an inhibition in vivo at 1.5 mg/kg in the test with asthmatic rats of 59%. Also, the responders at 1.2 mg/kg in test [1] (1.2 mg/kg p.o.) is 50%.

In the case of `COc1ccc2c(c1)Sc1cc(C)ccc1N2C`, the inhibition in vivo at 3 mg/kg in the test on asthmatic rats was 58%. Besides, the responders at 1 mg/kg in test [1] worked out at 30%.

Molecule `COc1ccc2c(c1)Sc1c(cc(OC)c(OC(C)=O)c1Br)N2C(C)=O` displayed an inhibition in vivo at 0.5 mg/kg with asthmatic rats of 58%. For the same molecule, the responders at 0.03 mg/kg in test [1] (0.03 mg/kg p.o.) stood at 60%.

`COc1ccc2c(c1)Sc1c(cc(OC)c(O)c1Br)N2C(C)=O` yielded an inhibition in vivo at 1.5 mg/kg with asthmatic rats of 78%. For the same molecule, the responders at 0.1 mg/kg in test [1] (0.1 mg/kg p.o.) was determined as 60%.

The molecule `COc1ccc2c(c1)Sc1c(cc(OC)c(O)c1Br)N2C(=O)OC(C)OC(C)=O` (centres unmarked) showed an inhibition in vivo at 5 mg/kg in the test with asthmatic rats (5.0 mg/kg p.o.) of 42%. Moreover, in test [1], the responders at 3 mg/kg is 60%.

`c1ccc2c(c1)Nc1ccccc1S2` [drawing 61]: in the test with asthmatic rats, the inhibition in vivo at 0.5 mg/kg amounted to 53%. Further, the responders at 3 mg/kg in test [1] is 50%.

`COc1ccc2c(c1Cl)Sc1ccccc1N2C` [drawing 64] came in with an inhibition in vivo at 0.2 mg/kg in the test on asthmatic rats (0.2 mg/kg p.o.) of 50%. Besides, in test [1] (0.016 mg/kg p.o.), the responders at 0.016 mg/kg came out at 50%.

On to `CC(C)C(=O)Oc1ccc2c(c1Cl)Sc1ccccc1N2C` [drawing 66], for which the inhibition in vivo at 3 mg/kg with asthmatic rats is 35%. Moreover, the responders at 1 mg/kg in test [1] is 70%.

In the test on asthmatic rats, `COc1ccc2c(c1Cl)Sc1ccccc1N2C(C)=O` [drawing 70] came in with an inhibition in vivo at 1.5 mg/kg of 59%. The responders at 0.01 mg/kg in test [1] (0.01 mg/kg p.o.) was found to be 50%.

These data come from patent US4666907A, “Phenothiazine and derivatives and analogs and use as leukotriene biosynthesis inhibitors” (Merck Frosst Canada, Inc., priority 1986, dated 1987).
